From the METLIN SMRT retention time set (Domingo-Almenara et al. 2019)

assay: gradient 5% acetonitrile 3 min, to 50% in 2 min, to 85% in 15 min, held 3 min, 100 µL/min; conditions: column: Zorbax Extend-C18 2.1 x 50 mm; eluents: water / acetonitrile, 0.1% formic acid
Method in brief: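 Each retention time is based on an adduct peak selected computationally and verified by manual inspection. Measurements used HPLC–quadrupole time-of-flight mass spectrometry in positive and negative ionization mode on mixtures of ~100 pure standards. Chromatography ran on a Zorbax Extend-C18 column (2.1 × 50 mm, 1.8 μm) at 100 μL/min with water and acetonitrile, each containing 0.1% formic acid, and dead and dwell volumes of 40 μL and 900 μL.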

**Q.** For `CCN(CC)c1cc2c(cc1NC(=O)c1ccco1)n(C)c(=O)c(=O)n2C`, which RP-LC retention time is on record?
**A.** 724 s

**Q.** For `CCOC(=O)Nc1nc2c(s1)CN(S(=O)(=O)N(C)C)CC2`, which RP-LC retention time is on record?
**A.** 670 s

**Q.** For `Cc1ccc(-c2nc(C3CC(=O)N(c4ccc(F)cc4)C3)no2)cc1C` (stereo not given), which RP-LC retention time is on record?
**A.** 1100 s

**Q.** For `N#Cc1ccc(NC2c3ccccc3CC2O)cc1` (stereo not given), which RP-LC retention time is on record?
**A.** 822 s

**Q.** With `CC(C)Cn1c(=O)c(C(=O)NCc2ccc(N3CCCCC3)cc2)nc2cccnc21` as the molecule, how does the RP-LC retention time read?
**A.** 666 s

**Q.** With `COc1ccc(-c2ccnc3nc(Cc4ccc(F)cc4)nn23)cc1OC` as the molecule, how does the RP-LC retention time read?
**A.** 851 s

**Q.** For `C[C@H](N)Cc1cccc(C(F)(F)F)c1`, which RP-LC retention time is on record?
**A.** 655 s

**Q.** With `CCc1nc(OCC(=O)NCCOC)c2c(-c3ccc(F)cc3)noc2n1` as the molecule, how does the RP-LC retention time read?
**A.** 845 s

**Q.** For `Cc1ccc(F)cc1NC(=O)Cn1nc(N2CCC(C)CC2)c2ccccc2c1=O`, which RP-LC retention time is on record?
**A.** 1180 s

**Q.** Which RP-LC retention time does the source give for `Cn1nc(C(=O)N2C[C@@H]3C[C@H](NC(=O)c4ccccc4)[C@H]2C3)c2ccccc21` here?
**A.** 788 s

**Q.** For `Cn1c(CNC(=O)C2(C)CCCCC(=O)N2)nc2ccccc21` (stereo not given), which RP-LC retention time is on record?
**A.** 573 s

**Q.** With `O=[N+]([O-])c1ccc(-c2csc(Nc3ccc4c(c3)OCO4)n2)cc1` as the molecule, how does the RP-LC retention time read?
**A.** 1110 s

**Q.** For `Cc1ccccc1CNS(=O)(=O)c1cc2c(s1)CCN(C(=O)C1CCC1)C2`, which RP-LC retention time is on record?
**A.** 942 s

**Q.** For `CCOc1ccc(CC(=O)N2CCN(c3ccc(NC(=O)c4ccccc4)nn3)CC2)cc1`, which RP-LC retention time is on record?
**A.** 667 s

**Q.** Which RP-LC retention time does the source give for `CC(C)(C)c1ccc(-c2noc(Cn3c(=O)n(-c4ccccc4F)c(=O)c4sccc43)n2)cc1` here?
**A.** 1220 s

**Q.** For `Cc1oc(C2CCN(C(=O)Nc3ccc(F)cc3F)CC2)nc1C(=O)N1CCOCC1`, which RP-LC retention time is on record?
**A.** 680 s

**Q.** Which RP-LC retention time does the source give for `O=C(CN1CCN(C(=O)Nc2ccc(F)cc2)CC1=O)N1CCCC1` here?
**A.** 615 s

**Q.** With `CC1CCN(c2ncc3c(n2)CCC(C(=O)NCc2nc4ccccc4n2C)C3)CC1` (stereo not given) as the molecule, how does the RP-LC retention time read?
**A.** 625 s

**Q.** With `Cc1ccc(NS(=O)(=O)c2cc(-c3nc(C(C)(C)C)cs3)cs2)c(C)c1` as the molecule, how does the RP-LC retention time read?
**A.** 1310 s

**Q.** With `COC(=O)c1ccc(NC(=O)Cn2c(=O)cc(-c3nc(C(C)C)no3)c3ccccc32)cc1` as the molecule, how does the RP-LC retention time read?
**A.** 990 s

**Q.** Which RP-LC retention time does the source give for `CC1(C)CC(=O)c2cn(-c3ccc(Cl)cc3)c(=O)c(C(=O)NCCN3CCOCC3)c2C1` here?
**A.** 592 s

**Q.** Which RP-LC retention time does the source give for `Cc1cc(F)ccc1N1C(=O)CN(S(C)(=O)=O)CC1(C)C(=O)NC1CCCCC1` (stereo not given) here?
**A.** 822 s

**Q.** For `Cc1noc(C)c1S(=O)(=O)N1CCC(n2c(C)cnc2-c2cccnc2)C1` (stereo not given), which RP-LC retention time is on record?
**A.** 616 s

**Q.** Which RP-LC retention time does the source give for `CCN(CC)C(=O)Cn1ccc(NC(C)=O)nc1=O` here?
**A.** 602 s

**Q.** For `CCOc1ccc(NC(=O)N2CC(=O)N(CC(=O)N3CCC(C(N)=O)CC3)c3ccccc32)cc1`, which RP-LC retention time is on record?
**A.** 660 s

**Q.** With `O=C(CN1C(=O)COc2ccc(C(=O)N3CCc4ccccc4C3)cc21)N1CCCC1` as the molecule, how does the RP-LC retention time read?
**A.** 763 s

**Q.** With `COc1ccc(C(=O)N2CCCC(c3nnc(-c4ccccc4)o3)C2)cc1` (stereo not given) as the molecule, how does the RP-LC retention time read?
**A.** 804 s

**Q.** Which RP-LC retention time does the source give for `Cc1ccccc1CNC(=O)C1CCCN(S(=O)(=O)c2c[nH]c(C(=O)N3CCCCCC3)c2)C1` (stereo not given) here?
**A.** 871 s

**Q.** Which RP-LC retention time does the source give for `Cc1ccc2c(=O)c(C(=O)N3CCCC3)cn(CC(=O)Nc3ccc(C)c(C)c3)c2n1` here?
**A.** 733 s

**Q.** Which RP-LC retention time does the source give for `Cc1cc(Cn2cnc3c2C[C@@H](C(=O)O)N(C(=O)C(c2ccccc2)c2ccccc2)C3)ccc1N` here?
**A.** 700 s

**Q.** Which RP-LC retention time does the source give for `Cc1cccc(S(=O)(=O)N2CCc3c(c(-c4nnc(-c5ccccc5F)o4)nn3C)C2)c1` here?
**A.** 999 s

**Q.** Which RP-LC retention time does the source give for `Cc1nnc([C@@H]2CC(F)(F)CN2C(=O)c2n[nH]c3ccccc23)o1` here?
**A.** 666 s

**Q.** For `O=C(Cc1cccc(F)c1)N1CCN(C(=O)c2nnn3c2COC(c2ccccc2)C3)CC1` (stereo not given), which RP-LC retention time is on record?
**A.** 854 s

**Q.** For `COc1ccc(CCNC(=O)C2CCCN(S(=O)(=O)c3ccc(OC)c(C)c3)C2)cc1` (stereo not given), which RP-LC retention time is on record?
**A.** 891 s

**Q.** With `COc1cccc(CNC(=O)C2CCCN(c3nnc4ccc(Cl)cn34)C2)c1` (stereo not given) as the molecule, how does the RP-LC retention time read?
**A.** 756 s
